Assay results published in US7888000B2, “Method for identifying salt-sensitive persons” (Morehouse School of Medicine, priority 2002, dated 2011).

How the values were obtained:
[1] = test system: Dahl salt-sensitive (S) rats; conditions: exogenous 25-OHD; S rats fed a high salt diet; cited from earlier work
[2] = rat, in vivo

Compound: C=C1CC[C@H](O)C/C1=C/C=C1\CCC[C@]2(C)[C@@H]([C@H](C)CCCC(C)(C)O)CC[C@@H]12 [25-OHD, 25-hydroxycholecalciferol]
- attenuation of the blood pressure increase [1]: will not attenuate the blood pressure increase
- increase of plasma 25-OHD [2]: successful in S rats fed low
